≈ marks a conversion by molar mass, not a printed value. Bridge positions count the residues as written; N and C are the ends. Square brackets hold non-standard residues; d marks the D form. Peptide text beside a SMILES is read from it.
Key:
S. aureus ATCC 25923 = assay type: cell-based, Staphylococcus aureus
Outline: (§1)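 MICs were determined by broth microdilution, with bacteria at a final 1 × 10^6 CFU/mL and peptides tested from 100 to 0.78 μM.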

B. megaterium Bm11 = assay type: cell-based, Bacillus megaterium
Outline: as §1

E. coli ATCC 25922 = assay type: cell-based, Escherichia coli
Outline: as §1

P. aeruginosa ATCC 27853 = assay type: cell-based, Pseudomonas aeruginosa
Outline: as §1

[1] = system: HaCaT cells (human immortalized keratinocytes); experiment: Cytotoxicity, MTT assay; assay type: cell-based
Protocol: In particular, the cytotoxicity was evaluated by the 3-(4,5-dimethylthiazol-2-yl)-2,5-diphenyltetrazolium bromide (MTT) assay and is expressed as the percentage of viability of peptide-treated cells compared to that of untreated control cells. As expected, after 2 and 24 h treatments, the cell viability decreased in a concentration-dependent manner for all peptides (Figure 2).
Figure 2 Viability of peptide-treated HaCaT cells evaluated by MTT assay at 2 h (a) and 24 h (b). All data are expressed as a percentage with respect to the untreated control cells and are the mean of three independent experiments ± standard error of the mean (SEM).
The human immortalized keratinocytes HaCaT cells (AddexBio, San Diego, CA) were cultured in Dulbecco’s modified Eagle’s medium containing 4 mM glutamine (DMEMg), supplemented with 10% heat-inactivated fetal bovine serum (FBS) and 0.1 mg/mL of penicillin and streptomycin, at 37 °C and 5% CO2, in 25 or 75 cm^2 flasks.
The quantification of cell viability was performed by the in vitro MTT [3-(4,5-dimethylthiazol-2-yl)-2,5-diphenyltetrazolium bromide] assay, as previously reported,[77] measuring the conversion of the soluble yellow dye MTT to insoluble purple formazan by mitochondrial dehydrogenases. More precisely, 4 × 10^4 HaCaT cells, suspended in DMEMg supplemented with 2% FBS without antibiotics, were plated in each well of the 96-well plate. After overnight incubation at 37 °C and 5% CO2, the medium of each well was replaced by DMEMg containing the peptide at different concentrations, as indicated. Controls were HaCaT cells not treated with the peptide. After 2 and 24 h of incubation at 37 °C and 5% CO2, the medium was discarded; 0.5 mg/mL of MTT in Hank’s buffer was added to each well, and the plate was incubated for further 4 h. Acidified isopropanol was then added to dissolve formazan crystals, and the absorbance of each well at 570 nm was measured using a microplate reader (Infinite M200; Tecan, Salzburg, Austria). The purple color intensity is directly proportional to the number of viable cells, which was expressed as a percentage compared to that of untreated control cells (100%).

[2] = Thioflavin T aggregation in LUVs; assay type: physicochemical; settings: tested 5–50 μM, 25 °C, pH 7.4, ThT emission 482 nm; for peptide concentration at which oligomerization (ThT fluorescence plateau) was observed: DOPE/DOPG/CL (63/23/12) LUVs; for peptide concentration at which aggregation (increase of ThT fluorescence) was observed: DOPG/CL (58/42) LUVs
From the text: We used large unilamellar vesicles (LUVs) made of phosphatidylethanolamine (DOPE), phosphatidylglycerol (DOPG), and cardiolipin (CL) (63/23/12) to mimic lipid composition of the cytoplasmic membrane of Gram-negative bacteria. Gram-positive membranes were otherwise mimicked using LUVs made of DOPG and CL (58/42).
TEXT PRINTED IN THE PICTURE: (c) 9: DOPG/CL mimicking Gram-positive membrane: θ222/ θ208: 1.7 | (c) 12: DOPG/CL mimicking Gram-positive membrane: θ222/ θ208: 2.6 | (c) 17: DOPG/CL mimicking Gram-positive membrane: θ222/ θ208: 1.9 | (f) 9: DOPE/DOPG/CL mimicking Gram-negative membrane: θ222/ θ208: 1.8 | (f) 12: DOPE/DOPG/CL mimicking Gram-negative membrane: θ222/ θ208: 2.1 | (f) 17: DOPE/DOPG/CL mimicking Gram-negative membrane: θ222/ θ208: 1.7
The fluorescent dye Thioflavin T (ThT) is widely used to quantify peptide aggregation in the presence of bacterial membranes represented by LUVs (Gram-positive, DOPG/CL, 58/42 ratio in moles; Gram-negative DOPG/DOPE/CL, 63/23/12 ratio in moles). Once lipid films were prepared as described above, they were hydrated with 100 mM NaCl, 10 mM Tris-HCl, […] ThT buffer, pH = 7.4, vortexed for 1 h, freeze-thawed six times, and extruded 10 times through polycarbonate membranes with 0.1 μm diameter pores.[80] Peptides were dissolved in water to have a stock solution of 2 mM. Peptide aggregation was quantified by treating LUVs with peptide concentrations of 5, 10, 15, 20, 30, and 50 μM. Fluorescence was measured before and after the addition of peptide at 25 °C using a Varian Cary Eclipse fluorescence spectrometer. ThT fluorescence emission was measured at 482 nm (slit width, 5 nm) after excitation at 450 nm (slit width, 10 nm). In the presence of aggregated peptides, ThT combines with them giving an excitation maximum at 450 nm and an increased emission at 482 nm.[62] Peptide aggregation was calculated as %A = (Ff – F0)/(Fmax – F0) × 100, where Ff indicates the value of fluorescence after peptide addition, F0 is the initial fluorescence in the absence of peptide, and Fmax is the fluorescence maximum obtained immediately after peptide addition.

In the case of `CC[C@H](C)[C@H](NC(=O)[C@H](CCCNC(=N)N)NC(=O)[C@@H]1CCCCn2cc(nn2)C[C@H](NC(=O)[C@H](Cc2ccccc2)NC(=O)[C@H](Cc2c[nH]c3ccccc23)NC(=O)[C@@H]2CCCN2C(=O)[C@@H](NC(=O)[C@@H](N)Cc2ccccc2)C(C)C)C(=O)N[C@@H](CCCCN)C(=O)N[C@@H](Cc2ccccc2)C(=O)NC(CC(C)C)C(=O)N1)C(=O)N[C@@H](CC(C)C)C(N)=O` (stereo in doubt) [compound 17], the “MIC S. aureus ATCC 25923” value (S. aureus ATCC 25923) was 3.12 µM (≈ 5.35 µg/mL), the “MIC B. megaterium Bm11” value (B. megaterium Bm11) was 1.56 µM (≈ 2.67 µg/mL) and the “MIC E. coli ATCC 25922” value (E. coli ATCC 25922) was >100 µM. The “MIC P. aeruginosa ATCC 27853” value (P. aeruginosa ATCC 27853) was >100 µM, the HaCaT cell viability ([1]; 2 h treatment, 25 μM, vs untreated control, mean of three independent experiments) was 60–70% and the HaCaT cell viability ([1]; 2 h treatment, 50 μM, vs untreated control, mean of three independent experiments) was “less than 40%”. For the same compound, the HaCaT cell viability ([1]; 24 h treatment (sentence continues from 50 μM), vs untreated control) was “less than 20%”, the “peptide concentration at which oligomerization (ThT fluorescence plateau) was observed” value [2] was 10 µM and the “peptide concentration at which aggregation (increase of ThT fluorescence) was observed” value [2] was 50 µM.

In the case of `CC[C@H](C)[C@H](NC(=O)[C@H](CCCNC(=N)N)NC(=O)[C@@H]1CCC(=O)NCCCC[C@H](NC(=O)[C@H](Cc2ccccc2)NC(=O)[C@H](Cc2c[nH]c3ccccc23)NC(=O)[C@@H]2CCCN2C(=O)[C@@H](NC(=O)[C@@H](N)Cc2ccccc2)C(C)C)C(=O)N[C@@H](CCCCN)C(=O)N[C@@H](Cc2ccccc2)C(=O)N[C@H](CC(C)C)C(=O)N1)C(=O)N[C@@H](CC(C)C)C(N)=O` [compound 12] (H-FVPWFKKF[dL]ERIL-NH2; lactam 6-10), the “MIC S. aureus ATCC 25923” value (S. aureus ATCC 25923) was 3.12 µM (≈ 5.32 µg/mL), the “MIC B. megaterium Bm11” value (B. megaterium Bm11) was 1.56 µM (≈ 2.66 µg/mL) and the “MIC E. coli ATCC 25922” value (E. coli ATCC 25922) was 25 µM (≈ 42.6 µg/mL). For the same compound, the “MIC P. aeruginosa ATCC 27853” value (P. aeruginosa ATCC 27853) was 100 µM (≈ 170 µg/mL), the HaCaT cell viability ([1]; 25 μM, same profile after either 2 or 24 h) was 94% and the HaCaT cell viability ([1]; 50 μM, same profile after either 2 or 24 h) was 60%. For the same compound, the “peptide concentration at which oligomerization (ThT fluorescence plateau) was observed” value [2] was 10 µM and the “peptide concentration at which aggregation (increase of ThT fluorescence) was observed” value [2] was 30 µM.

— PMC8389922, “First-in-Class Cyclic Temporin L Analogue: Design, Synthesis, and Antimicrobial Assessment” (Journal of Medicinal Chemistry, 2021)
